Reference: patent US10562900B2 (Shanghai Haihe Pharmaceutical Co., Ltd., priority 2014, dated 2020)

How the values were obtained:
[1] = tested on: acute myelogenous leukemia cell strain KG1; assay: Growth inhibition of FGFR1-dependent KG1 cells (CCK-8); type: cell-based; settings: Homo sapiens, KG-1, 72 h treatment
Experimental: The growth inhibition of the acute myelogenous leukemia cell strain KG1 (FGFR1-dependent tumor cell strain; the FGFR1 fusion protein in the cell was expressed in the cytoplasm; purchased from ATCC cell bank) by the compounds was detected with CCK-8 cell count kit (Dojindo). The specific steps are as follows: KG1 cells in logarithmic growth phase were seeded onto a 96-well culture plate in appropriate density, 90 ul per well. After overnight culture, different concentrations of compounds were added and the treatment continued for 72 h, and solvent control group (negative control) was set. After treatment for 72 h, the effect of the compounds on cell proliferation was observed by CCK-8 cell counting kit (Dojindo). 10 μL of CCK-8 reagent was added to each well. After incubated for 2-4 hours in a 37 □ incubator, read with SpectraMax 190 microplate reader at 450 nm wavelength. The inhibition rate (%) of the compounds on tumor cell growth was calculated using the following formula: Inhibition rate (%)=(OD negative control well-OD administered well)/OD negative control well×100%.

FGFR3 = FGFR3 (Homo sapiens (Human), UniProt P22607); assay: FGFR3 kinase activity at the molecular level (ELISA, Poly(Glu,Tyr) 4:1 substrate); type: biochemical; settings: kinase domain recombinant protein, 5 μM ATP
Experimental: (§1) 100 μL/well of 2 mg/mL OPD developing solution (diluted with 0.1M citric acid-sodium citrate buffer containing 0.03% H2O2 (pH=5.4)), and reacted in dark for 1-10 minutes at 25° C.

FGFR1 = FGFR1 (Homo sapiens (Human), UniProt P11362); assay: FGFR1 kinase activity at the molecular level (ELISA, Poly(Glu,Tyr) 4:1 substrate); type: biochemical; settings: kinase domain recombinant protein, 5 μM ATP
Experimental: as §1

FGFR2 = FGFR2 (Homo sapiens (Human), UniProt P21802); assay: FGFR2 kinase activity at the molecular level (ELISA, Poly(Glu,Tyr) 4:1 substrate); type: biochemical; settings: kinase domain recombinant protein, 5 μM ATP
Experimental: as §1

FGFR3, sequence (P22607 472-761): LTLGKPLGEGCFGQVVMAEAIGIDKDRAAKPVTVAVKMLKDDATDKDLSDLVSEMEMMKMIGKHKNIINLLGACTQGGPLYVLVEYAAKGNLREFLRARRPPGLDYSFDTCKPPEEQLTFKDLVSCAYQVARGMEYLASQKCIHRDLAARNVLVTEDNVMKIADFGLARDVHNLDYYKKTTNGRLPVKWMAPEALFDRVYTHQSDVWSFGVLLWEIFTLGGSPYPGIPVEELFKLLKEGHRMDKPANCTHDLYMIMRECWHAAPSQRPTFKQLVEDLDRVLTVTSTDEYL
FGFR1, sequence (P11362 478-767): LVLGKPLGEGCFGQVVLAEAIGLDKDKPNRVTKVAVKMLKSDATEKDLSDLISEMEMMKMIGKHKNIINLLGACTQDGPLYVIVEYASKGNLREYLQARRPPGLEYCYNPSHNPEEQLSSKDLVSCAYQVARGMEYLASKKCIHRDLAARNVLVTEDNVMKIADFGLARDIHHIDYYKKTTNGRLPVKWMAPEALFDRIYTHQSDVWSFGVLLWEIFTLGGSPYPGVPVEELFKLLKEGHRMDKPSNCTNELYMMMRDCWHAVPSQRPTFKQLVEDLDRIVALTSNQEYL
FGFR2, sequence (P21802 481-770): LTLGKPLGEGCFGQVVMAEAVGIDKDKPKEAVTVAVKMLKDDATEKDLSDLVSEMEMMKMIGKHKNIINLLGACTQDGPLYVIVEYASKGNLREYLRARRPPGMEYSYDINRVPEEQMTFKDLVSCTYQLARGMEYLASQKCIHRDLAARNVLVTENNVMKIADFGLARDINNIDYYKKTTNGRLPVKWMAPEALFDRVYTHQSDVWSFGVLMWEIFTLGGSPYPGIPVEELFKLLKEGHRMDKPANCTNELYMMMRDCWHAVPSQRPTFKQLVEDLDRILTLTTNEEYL

SMILES | IC50 [1] [nM] | IC50 (FGFR3) [nM] | IC50 (FGFR1) [nM] | IC50 (FGFR2) [nM]
CCN1CCN(c2ccc(C(=O)Nc3n[nH]c4cc(-c5c(Cl)c(OC)cc(OC)c5Cl)ccc34)cc2)CC1 [Example 18, N-(6-(2,6-dichloro-3,5-dimethoxyphenyl)-1H-indazole-3-yl)-4-(4-ethylpiperazine-1-yl)benzamide] | < 200 | < 100 | < 100 | < 100
COc1cc(OC)c(Cl)c(-c2ccc3c(NC(=O)c4ccc(N5CCN(C)CC5)cc4)n[nH]c3c2)c1Cl [Example 15, N-(6-(2,6-dichloro-3,5-dimethoxyphenyl)-1H-indazole-3-yl)-4-(4-methylpiperazine-1-yl)benzamide] | < 200 | < 100 | < 100 | < 100
COc1cc(OC)c(Cl)c(-c2ccc3c(NC(=O)c4ccc(NCCN(C)C)cc4)n[nH]c3c2)c1Cl [Example 20, N-(6-(2,6-dichloro-3,5-dimethoxyphenyl)-1H-indazole-3-yl)-4-((2-(dimethylamino)ethyl)amino)benzamide] |  |  | < 100 | < 100
CCN1CCN(c2ccc(C(=O)Nc3n[nH]c4nc(-c5c(Cl)c(OC)cc(OC)c5Cl)ccc34)cn2)CC1 [Example 86, N-(6-(2,6-dichloro-3,5-dimethoxyphenyl)-1H-pyrazolo [3,4-b]pyridin-3-yl)-6-(4-ethylpiperazine-1-yl)nicotinamide] |  |  | < 100 | < 100
COc1cc(OC)c(Cl)c(-c2ccc3c(NC(=O)c4ccc(N5C[C@@H](C)N[C@@H](C)C5)cc4)n[nH]c3n2)c1 [Example 66] |  |  | < 100 | < 100
COc1cc(OC)c(F)c(-c2ccc3c(NC(=O)c4ccc(N5CCNC(C)(C)C5)cc4)n[nH]c3c2)c1F [Example 46, N-(6-(2,6-difluoro-3,5-dimethoxyphenyl)-1H-indazole-3-yl)-4-(3,3-dimethylpiperazine-1-yl)benzamide] |  |  | < 100 | < 100
COc1cc(OC)c(Cl)c(-c2ccc3c(NC(=O)c4ccc(NC(=O)CN(C)C)cc4)n[nH]c3c2)c1Cl [Example 28, N-(6-(2,6-dichloro-3,5-dimethoxyphenyl)-1H-indazole-3-yl)-4-(2-(dimethylamino)acetylamino)benzamide] |  |  | < 100 | < 100
COc1cc(OC)c(Cl)c(-c2ccc3c(NC(=O)c4cccc(N5CCN(C)CC5)c4)n[nH]c3c2)c1Cl [Example 23, N-(6-(2,6-dichloro-3,5-dimethoxyphenyl)-1H-indazole-3-yl)-3-(4-methyl-1-yl)benzamide] |  |  | < 100 | < 100
COc1cc(OC)c(F)c(-c2ccc3c(NC(=O)c4ccc(CN5CCN(C)CC5)cc4)n[nH]c3c2)c1F [Example 94, N-(6-(2,6-difluoro-3,5-dimethoxyphenyl)-1H-indazole-3-yl)-4-((4-methylpiperazine-1-yl)methyl)benzamide] |  |  | < 100 | < 100
COc1cc(OC)c(Cl)c(-c2ccc3c(NC(=O)c4ccc(N5C[C@@H](C)N[C@@H](C)C5)nc4)n[nH]c3n2)c1Cl [Example 71] |  |  | < 100 | < 100
COc1cc(C(=O)Nc2n[nH]c3nc(-c4c(Cl)c(OC)cc(OC)c4Cl)ccc23)ccc1N1CCNC(C)(C)C1 [Example 101, N-(6-(2,6-dichloro-3,5-dimethoxyphenyl)-1H-pyrazolo [3,4-b]pyridin-3-yl)-4-(3,3-dimethylpiperazine-1-yl)-3-methoxybenzamide] |  |  | < 100 | < 100
COc1cc(OC)c(Cl)c(-c2ccc3c(NC(=O)c4ccc(N5CCN(C6CC6)CC5)cc4)n[nH]c3n2)c1Cl [Example 89] |  |  | < 100 | < 100
COc1cc(OC)c(Cl)c(-c2ccc3c(NC(=O)c4ccc(N5CCN(C(C)C)CC5)cc4)n[nH]c3c2)c1Cl [Example 24, N-(6-(2,6-dichloro-3,5-dimethoxyphenyl)-1H-indazole-3-yl)-4-(4-isopropyl-1-yl)benzamide] |  |  | < 100 | < 100
COc1cc(OC)c(Cl)c(-c2ccc3c(NC(=O)c4ccc(N5CCN(C(C)=O)CC5)cc4)n[nH]c3c2)c1Cl [Example 36, 4-(4-acetylpiperazine-1-yl)-N-(6-(2,6-dichloro-3,5-dimethoxyphenyl)-1H-indazole-3-yl)benzamide] |  |  | < 100 | < 100
COc1cc(OC)c(Cl)c(-c2ccc3c(NC(=O)c4ccc(CN(C)C)cc4)n[nH]c3c2)c1Cl [Example 34, N-(6-(2,6-dichloro-3,5-dimethoxyphenyl)-1H-indazole-3-yl)-4-((dimethylamino)methyl)benzamide] |  |  | < 100 | < 100
COc1cc(OC)c(Cl)c(-c2ccc3c(NC(=O)c4ccc(N5CCC(N(C)C)C5)cc4)n[nH]c3n2)c1Cl (centres unmarked) [Example 100] |  |  | < 100 | < 100
COc1cc(OC)c(Cl)c(-c2ccc3c(NC(=O)c4ccc(N5C[C@@H](C)N[C@@H](C)C5)cn4)n[nH]c3c2)c1Cl [Example 21, N-(6-(2,6-dichloro-3,5-dimethoxyphenyl)-1H-indazole-3-yl)-5-((3R,5S)-3,5-dimethyl-1-yl)pyridine amide] |  |  | < 100 | < 100

More lines, now with the values ahead:

IC50 [1] [nM] | IC50 (FGFR3) [nM] | IC50 (FGFR1) [nM] | IC50 (FGFR2) [nM] | SMILES
< 200 |  |  |  | COc1cc(OC)c(Cl)c(-c2ccc3c(NC(=O)c4ccc(N5C[C@@H](C)N[C@@H](C)C5)cc4)n[nH]c3c2)c1Cl [Example 14]
200 to 1000 | < 100 | < 100 | < 100 | COc1cc(OC)c(Cl)c(-c2ccc3c(NC(=O)c4ccc(CN5CCN(C)CC5)cc4)n[nH]c3c2)c1Cl [Example 16, N-(6-(2,6-dichloro-3,5-dimethoxyphenyl)-1H-indazole-3-yl)-4-((4-methylpiperazine-1-yl)methyl)benzamide]
 |  | < 100 | < 100 | COc1cc(OC)c(Cl)c(-c2ccc3c(NC(=O)c4ccc(N5CCNCC5)cc4)n[nH]c3c2)c1Cl [Example 25, N-(6-(2,6-dichloro-3,5-dimethoxyphenyl)-1H-indazole-3-yl)-4-(piperazine-1-yl)benzamide]
 |  | < 100 | < 100 | COc1cc(OC)c(Cl)c(-c2ccc3c(NC(=O)c4ccc(N5C[C@@H](C)N(C)[C@@H](C)C5)cc4)n[nH]c3n2)c1Cl [Example 90]
 |  | < 100 | < 100 | COc1cc(OC)c(F)c(-c2ccc3c(NC(=O)c4ccc(N5C[C@@H](C)N[C@@H](C)C5)cc4)n[nH]c3c2)c1 [Example 55]
 |  | < 100 | < 100 | COc1cc(OC)c(Cl)c(-c2ccc3c(NC(=O)c4ccc(N5CCNC(C)(C)C5)cc4)n[nH]c3n2)c1Cl [Example 72]
 |  | < 100 | < 100 | COc1cc(OC)c(Cl)c(-c2ccc3c(NC(=O)c4ccc(N5CCOCC5)cc4)n[nH]c3n2)c1Cl [Example 70, N-(6-(2,6-dichloro-3,5-dimethoxyphenyl)-1H-pyrazolo [3,4-b]pyridin-3-yl)-4-morpholino benzamide]
 |  | < 100 | < 100 | CCN1CCN(c2ccc(C(=O)Nc3n[nH]c4nc(-c5c(Cl)c(OC)cc(OC)c5Cl)ccc34)cc2)CC1 [Example 65, N-(6-(2,6-dichloro-3,5-dimethoxyphenyl)-1H-pyrazolo [3,4-b]pyridin-3-yl)-4-(4-ethylpiperazine-1-yl)benzamide]
 | < 100 | < 100 | < 100 | COc1cc(OC)c(Cl)c(-c2ccc3c(NC(=O)c4ccc(N5CCN(C)CC5)cc4)n[nH]c3n2)c1Cl [Example 63, N-(6-(2,6-dichloro-3,5-dimethoxyphenyl)-1H-pyrazolo [3,4-b]pyridin-3-yl)-4-(4-methylpiperazine-1-yl)benzamide]
 |  | < 100 | < 100 | COc1cc(OC)c(F)c(-c2ccc3c(NC(=O)c4ccc(N5CCCN(C)CC5)cc4)n[nH]c3c2)c1F [Example 95, N-(6-(2,6-difluoro-3,5-dimethoxyphenyl)-1H-indazole-3-yl)-4-(4-methyl-1,4-diazepane-1-yl)benzamide]
 |  | < 100 | < 100 | COc1cc(OC)c(Cl)c(-c2ccc3c(NC(=O)c4ccc(N5CC6(CNC6)C5)cc4)n[nH]c3n2)c1Cl [Example 73, N-(6-(2,6-dichloro-3,5-dimethoxyphenyl)-1H-pyrazolo [3,4-b]pyridin-3-yl)-4-(2,6-diazaspiro [3.3]heptane-2-yl)benzamide]
 |  | < 100 | < 100 | COc1cc(OC)c(Cl)c(-c2ccc3c(NC(=O)c4cnn(CCO)c4)n[nH]c3c2)c1Cl [Example 31, N-(6-(2,6-dichloro-3,5-dimethoxyphenyl)-1H-indazole-3-yl)-1-(2-hydroxyethyl)-1H-pyrazol-4-formamide]
 |  | < 100 | < 100 | COc1cc(OC)c(Cl)c(-c2ccc3c(NC(=O)c4ccc(N5CCNC(C)(C)C5)cc4)n[nH]c3c2)c1Cl [Example 22, N-(6-(2,6-dichloro-3,5-dimethoxyphenyl)-1H-indazole-3-yl)-4-(3,3-dimethyl-1-yl)benzamide]
 |  | < 100 | < 100 | COc1cc(OC)cc(-c2ccc3c(NC(=O)c4ccc(N5C[C@@H](C)N[C@@H](C)C5)cc4)n[nH]c3n2)c1 [Example 68, N-(6-(3,5-dimethoxyphenyl)-1H-pyrazolo [3,4-b]pyridin-3-yl)-4-(((3R,5S)-3,5-dimethylpiperazine-1-yl))benzamide]
